Laboratory results from patent US20080194585A1, “Fungicidal Pyrazine Derivatives” (priority 2005, published 2008).
Marks after values point to notes of the source that are not given here.

What was measured:
Septoria nodorum = assay: Test H: wheat glum blotch, preventive spray on wheat seedlings
Description: (the causal agent of wheat glum blotch) and incubated in a saturated atmosphere at 20° C. for 48 h, and then moved to a growth chamber at 22° C. for 5 days, after which disease ratings were made.

[1] = system: Colletotrichum orbiculare; assay: Test B: cucumber Colletotrichum anthracnose, preventive spray on cucumber seedlings
Septoria tritici = assay: Test J: wheat leaf blotch, preventive spray on wheat seedlings; assay type: in vivo
Description: A dash (-) indicates no test results.

Plasmopara viticola = assay: Test D: grape downy mildew, spray after inoculation of grape seedlings; assay type: in vivo
Description: Upon removal, disease ratings were made. […] A dash (-) indicates no test results.

[2] = system: Erysiphe graminis f. sp. tritici; assay: Test L: wheat powdery mildew, preventive spray on wheat seedlings
[3] = system: Puccinia recondita f. sp. tritici; assay: Test K: wheat leaf rust, preventive spray on wheat seedlings
fusarium graminearium = assay: Test I: wheat head scab, preventive spray on wheat seedlings
Description: (the causal agent of wheat head scab) and incubated in a saturated atmosphere at 20° C. for 72 h, and then moved to a growth chamber at 22° C. for 5 days, after which disease ratings were made.

Botrytis cinerea = assay: Test E: tomato botrytis, preventive spray on tomato seedlings
Phytophthora infestans = assay: whole plant or invertebrate; assay type: in vivo
Pythium aphanidermatum = assay: Test A: bluegrass pythium blight, preventive spray on bluegrass seedlings
Rhizoctonia oryzae = assay: Test G: turf brown patch, preventive spray on creeping bent grass seedlings
Description: (the causal agent of turf brown patch) and incubated in a saturated atmosphere at 27° C. for 24 h, and then moved to a growth chamber at 27° C. for 5 days, after which disease ratings were made.

[4] = 40 ppm (marked *), 100 = 100% disease control, 0 = no control
[5] = 200 ppm, 100 = 100% disease control, 0 = no control

| Structure (SMILES) | Test H disease control rating (Septoria nodorum; 40 ppm (*)) | Test B disease control rating ([1]; 40 ppm (*)) | Test J disease control rating (Septoria tritici; 40 ppm (*)) | Test D disease control rating (Plasmopara viticola; 200 ppm) [%] | Test L disease control rating ([2]; 40 ppm (*)) | Test K disease control rating ([3]; 40 ppm (*)) | Test I disease control rating (fusarium graminearium; 200 ppm) [%] | Test E disease control rating (Botrytis cinerea; 40 ppm (*)) | Test F disease control rating (Phytophthora infestans; 200 ppm) [%] | Test A disease control rating (Pythium aphanidermatum; 200 ppm) [%] | Test G disease control rating (Rhizoctonia oryzae; 40 ppm (*)) | other results |
| --- | --- | --- | --- | --- | --- | --- | --- | --- | --- | --- | --- | --- |
| CCC(C)Cn1c(-c2c(F)cccc2F)c(Cl)nc(NN(C)C)c1=O (stereo not drawn) [compound 134] | 0* % | 0* % | 59* % | 0 | 0* % | 28* % | 89 | 0* % | 0 | 0 | 0* % | – |
| CC(C)Cn1c(-c2c(Cl)ccc(Cl)c2Cl)c(Cl)nc(-n2cccn2)c1=O [compound 121] | 99* % | 91* % | 100* % | 0 | 0* % | 99* % | 0 | 100* % | 0 | 0 | 44* % | – |
| CC(C)Cn1c(-c2ccc(Cl)s2)c(Cl)nc(-n2cncn2)c1=O [compound 157] | 0* % | 0* % | 47* % | 0 | 0* % | 0* % | 49 | 0* % | 0 | 0 | 0* % | – |
| N#Cc1nc(Cl)c(-c2c(F)cccc2F)n(Cc2ccco2)c1=O [compound 189] | 0* % | 0* % | 15* % | – | 0* % | 0* % | – | 0* % | – | – | 0* % | Test D disease control rating (Plasmopara viticola; 40 ppm (*)): 0* %; Test I disease control rating (fusarium graminearium; 40 ppm (*)): 0* %; Test F disease control rating (Phytophthora infestans; 40 ppm (*)): 0* %; Test A disease control rating (Pythium aphanidermatum; 40 ppm (*)): 0* % |
| CC(C)Cn1c(-c2ccc(Cl)o2)c(Cl)nc(-n2cncn2)c1=O [compound 156] | 0* % | 0* % | 14* % | 0 | 0* % | 0* % | 0 | 0* % | 0 | 0 | 0* % | – |
| Cc1ccn(-c2nc(Cl)c(-c3c(F)cccc3F)n(-c3cccc(C)c3C)c2=O)n1 [compound 379] | – | – | – | – | – | – | – | – | – | – | – | Test H disease control rating (Septoria nodorum; [4]): 90* %; Test B disease control rating [1, 4]: 0* %; Test J disease control rating (Septoria tritici; [4]): 100* %; Test D disease control rating (Plasmopara viticola; [4]): 0* %; Test L disease control rating [2, 4]: 40* %; Test K disease control rating [3, 4]: 95* %; Test I disease control rating (fusarium graminearium; [4]): 0* %; Test E disease control rating (Botrytis cinerea; [4]): 98* %; Test F disease control rating (Phytophthora infestans; [4]): 0* %; Test A disease control rating (Pythium aphanidermatum; [4]): 0* %; Test G disease control rating (Rhizoctonia oryzae; [4]): 0* % |
| CC(c1ccccc1)n1c(-c2c(F)cccc2F)c(Cl)nc(C#N)c1=O (stereo not drawn) [compound 109] | – | – | – | 0 | – | – | 0 | – | 0 | 0 | – | Test H disease control rating (Septoria nodorum; 200 ppm): 0%; Test B disease control rating ([1]; 200 ppm): 0%; Test J disease control rating (Septoria tritici; 200 ppm): 0%; Test L disease control rating ([2]; 200 ppm): 0%; Test K disease control rating ([3]; 200 ppm): 0%; Test E disease control rating (Botrytis cinerea; 200 ppm): 0%; Test G disease control rating (Rhizoctonia oryzae; 200 ppm): 0% |
| CC(C)Cn1c(-c2c(F)cccc2F)c(Br)nc(-n2cccn2)c1=O [Compound 99, 5-Bromo-6-(2,6-difluorophenyl)-1-(2-methylpropyl)-3-(1H-pyrazol-1-yl)-2(1H)-pyrazinone] | – | – | – | – | – | – | – | – | – | – | – | pest or weed control at 200 ppm (Septoria nodorum; Parastagonospora nodorum, in Triticum aestivum, topical, 168 h, read-out: Test H disease control rating, 200 ppm): 100%; pest or weed control at 200 ppm ([1]; Colletotrichum orbiculare, in Cucumis sativus, 144 h, read-out: Test B disease control rating, 200 ppm): 99%; pest or weed control at 200 ppm (Septoria tritici; Zymoseptoria tritici, 528 h, 200 ppm, read-out: Test J disease control rating): 100%; pest or weed control at 200 ppm (Plasmopara viticola; Plasmopara viticola, 168 h, 200 ppm, read-out: Test D disease control rating): 0%; pest or weed control at 200 ppm ([2]; Blumeria graminis, in Triticum aestivum, 168 h, read-out: Test L disease control rating, 200 ppm): 100%; pest or weed control at 200 ppm ([3]; Puccinia recondita, in Triticum aestivum, 192 h, read-out: Test K disease control rating): 100%; pest or weed control at 200 ppm (fusarium graminearium; Fusarium, in Triticum aestivum, topical, 192 h, read-out: Test I disease control rating, 200 ppm): 0%; pest or weed control at 200 ppm (Botrytis cinerea; Botrytis cinerea, in Solanum lycopersicum, topical, 72 h, read-out: Test E disease control rating): 100%; pest or weed control at 200 ppm (Phytophthora infestans; Phytophthora infestans, in Solanum lycopersicum, topical, 144 h, read-out: Test F disease control rating): 0%; pest or weed control at 200 ppm (Pythium aphanidermatum; Pythium aphanidermatum, 120 h, read-out: Test A disease control rating): 0%; pest or weed control at 200 ppm (Rhizoctonia oryzae; Waitea circinata, in Agrostis stolonifera, topical, 144 h, read-out: Test G disease control rating, 200 ppm): 82% |
| O=c1c(-n2cccn2)nc(Cl)c(-c2ccc(F)cc2Cl)n1-c1ccccc1 [compound 322] | – | – | – | – | – | – | – | – | – | – | – | Test H disease control rating (Septoria nodorum; [4]): 98* %; Test B disease control rating [1, 4]: 63* %; Test J disease control rating (Septoria tritici; [4]): 100* %; Test D disease control rating (Plasmopara viticola; [4]): 0* %; Test L disease control rating [2, 4]: 0* %; Test K disease control rating [3, 4]: 92* %; Test I disease control rating (fusarium graminearium; [4]): 0* %; Test E disease control rating (Botrytis cinerea; [4]): 99* %; Test F disease control rating (Phytophthora infestans; [4]): 0* %; Test A disease control rating (Pythium aphanidermatum; [4]): 0* %; Test G disease control rating (Rhizoctonia oryzae; [4]): 16* % |
| CC(C)Cn1c(-c2ccccc2Cl)c(Cl)nc(-n2cccn2)c1=O [compound 193] | 89* % | 29* % | 99* % | – | 68* % | 100* % | – | 100* % | – | – | 33* % | Test D disease control rating (Plasmopara viticola; 40 ppm (*)): 17* %; Test I disease control rating (fusarium graminearium; 40 ppm (*)): 0* %; Test F disease control rating (Phytophthora infestans; 40 ppm (*)): 0* %; Test A disease control rating (Pythium aphanidermatum; 40 ppm (*)): 0* % |
| O=c1c(-n2cccn2)nc(Cl)c(-c2c(F)cc(F)cc2F)n1-c1ccc(C(F)(F)F)cc1 [compound 354] | – | – | – | – | – | – | – | – | – | – | – | Test H disease control rating (Septoria nodorum; [4]): 91* %; Test B disease control rating [1, 4]: 9* %; Test J disease control rating (Septoria tritici; [4]): 100* %; Test D disease control rating (Plasmopara viticola; [5]): 0%; Test L disease control rating [2, 4]: 48* %; Test K disease control rating [3, 4]: 97* %; Test I disease control rating (fusarium graminearium; [5]): 0%; Test E disease control rating (Botrytis cinerea; [4]): 95* %; Test F disease control rating (Phytophthora infestans; [5]): 0%; Test A disease control rating (Pythium aphanidermatum; [5]): 0%; Test G disease control rating (Rhizoctonia oryzae; [4]): 47* % |
| CC(C)Cn1c(-c2ccccc2Br)c(Cl)nc(-n2cncn2)c1=O [compound 194] | 0* % | 0* % | 88* % | – | 0* % | 92* % | – | 95* % | – | – | 0* % | Test D disease control rating (Plasmopara viticola; 40 ppm (*)): 0* %; Test I disease control rating (fusarium graminearium; 40 ppm (*)): 0* %; Test F disease control rating (Phytophthora infestans; 40 ppm (*)): 0* %; Test A disease control rating (Pythium aphanidermatum; 40 ppm (*)): 0* % |
